Molecular target: human-cGAS (h-cGAS) (Homo sapiens, UniProt Q8N884)
Assay: hcGAS Kinase-Glo Assay
Format: biochemical
Conditions: 40 nM h-cGAS, 100 μM ATP, 100 μM GTP, 25 nM dsDNA, 3 h incubation, read-out: hcGAS potency IC50
Summary of the method: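 IC50 values come from a luminescence-based Kinase-Glo measurement on human cGAS. Conditions follow the Lama et al. 2019 method with minor modifications.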

Chain of human-cGAS (h-cGAS) (Q8N884 whole entry): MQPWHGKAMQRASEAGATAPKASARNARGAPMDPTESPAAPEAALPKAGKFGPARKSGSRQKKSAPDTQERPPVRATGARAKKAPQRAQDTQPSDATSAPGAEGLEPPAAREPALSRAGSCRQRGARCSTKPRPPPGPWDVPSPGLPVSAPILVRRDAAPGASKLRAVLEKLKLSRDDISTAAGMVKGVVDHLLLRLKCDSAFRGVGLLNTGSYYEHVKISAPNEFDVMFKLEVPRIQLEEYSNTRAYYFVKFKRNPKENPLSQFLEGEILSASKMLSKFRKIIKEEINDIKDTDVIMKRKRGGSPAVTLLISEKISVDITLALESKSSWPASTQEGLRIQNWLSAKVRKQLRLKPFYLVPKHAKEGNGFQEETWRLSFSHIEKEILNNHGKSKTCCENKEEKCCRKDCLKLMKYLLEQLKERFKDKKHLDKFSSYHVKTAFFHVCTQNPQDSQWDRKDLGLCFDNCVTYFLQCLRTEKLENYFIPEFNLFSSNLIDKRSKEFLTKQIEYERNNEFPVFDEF

Row | Compound | IC50
1 | CSc1nnc(NC(=O)c2onc3ccc(Sc4ccccc4)cc23)s1 [Compound 163, N-(5-(methylthio)-1,3,4-thiadiazol-2-yl)-5-(phenylthio)benzo[c]isoxazole-3-carboxamide] | ≥ 1000 nM
2 | CSc1nnc(NC(=O)c2onc3ccc(S(=O)(=O)c4ccccc4)cc23)s1 [Compound 164, N-(5-(methylthio)-1,3,4-thiadiazol-2-yl)-5-(phenylsulfonyl)benzo[c]isoxazole-3 carboxamide] | 500 to 1000 nM
3 | CSc1nnc(NC(=O)c2onc3ccc(Oc4ccccc4)cc23)s1 [Compound 165, N-(5-(methylthio)-1,3,4-thiadiazol-2-yl)-5-phenoxybenzo[c]isoxazole-3-carboxamide] | 500 to 1000 nM
4 | CSc1nnc(NC(=O)c2onc3ccc(C(O)c4ccccc4)cc23)s1 (centres unmarked) [Compound 166, 5-(hydroxy(phenyl)methyl)-N-(5-(methylthio)-1,3,4-thiadiazol-2-yl)benzo[c]isoxazole-3-carboxamide] | ≥ 1000 nM
5 | CSc1nnc(NC(=O)c2onc3ccc(C(=O)c4ccccc4)cc23)s1 [Compound 167, 5-benzoyl-N-(5-(methylthio)-1,3,4-thiadiazol-2-yl)benzo[c]isoxazole-3-carboxamide] | ≥ 1000 nM
6 | CSc1nnc(NC(=O)c2onc3c(CO)cccc23)s1 [Compound 168, 7-(hydroxymethyl)-N-(5-(methylthio)-1,3,4-thiadiazol-2-yl)benzo[c]isoxazole-3-carboxamide] | 500 to 1000 nM
7 | COCCc1cc(C(=O)Nc2nnc(-c3ccccc3Cl)s2)on1 [Compound 169, N-(5-(2-chlorophenyl)-1,3,4-thiadiazol-2-yl)-3-(2-methoxyethyl)isoxazole-5-carboxamide] | < 100 nM
8 | COCc1cc(C(=O)Nc2nnc(-c3ccccc3Cl)s2)on1 [Compound 170, N-(5-(2-chlorophenyl)-1,3,4-thiadiazol-2-yl)-3-(methoxymethyl)isoxazole-5-carboxamide] | 100 to 500 nM
9 | CSc1nnc(NC(=O)c2onc3c2CCc2scnc2-3)s1 [Compound 171, N-(5-(methylthio)-1,3,4-thiadiazol-2-yl)-4,5-dihydrothiazolo[5′,4′:5,6]benzo[1,2-c]isoxazole-3-carboxamide] | ≥ 1000 nM
10 | COc1cccc2c1CCc1c-2noc1C(=O)Nc1nnc(SC)s1 [Compound 172, 6-Methoxy-N-(5-(methylthio)-1,3,4-thiadiazol-2-yl)-4,5-dihydronaphtho[1,2-c]isoxazole-3-carboxamide] | ≥ 1000 nM
11 | CSc1nnc(NC(=O)c2onc3c2CCc2cccnc2-3)s1 [Compound 173, N-(5-(Methylthio)-1,3,4-thiadiazol-2-yl)-4,5-dihydroisoxazolo[4,3-h]quinoline-3-carboxamide] | 500 to 1000 nM
12 | CSc1nnc(NC(=O)c2onc3c2CCc2cnc(C)nc2-3)s1 [Compound 174, 8-Methyl-N-(5-(methylthio)-1,3,4-thiadiazol-2-yl)-4,5-dihydroisoxazolo[4,3-h]quinazoline-3-carboxamide] | ≥ 1000 nM
13 | COCCOc1cc(C(=O)Nc2nnc(-c3ccccc3Cl)s2)on1 [Compound 175, N-(5-(2-chlorophenyl)-1,3,4-thiadiazol-2-yl)-3-(2-methoxyethoxy)isoxazole-5-carboxamide] | 100 to 500 nM
14 | CSc1nnc(NC(=O)c2cc(-c3ccccc3-c3ccc(CC(=O)O)cc3)cc(=O)o2)s1 [Compound 176] | 500 to 1000 nM
15 | CSc1nnc(NC(=O)c2cc(-c3ccccc3-c3cccc(CC(=O)O)c3)cc(=O)o2)s1 [Compound 177, 2-(2′-(6-((5-(methylthio)-1,3,4-thiadiazol-2-yl)carbamoyl)-2-oxo-2H-pyran-4-yl)-[1,1′-biphenyl]-3-yl)acetic acid] | 500 to 1000 nM
16 | O=C(Nc1nnc(-c2ccccc2Cl)s1)c1onc2c(C(=O)O)cccc12 [Compound 178, 3-((5-(2-chlorophenyl)-1,3,4-thiadiazol-2-yl)carbamoyl)benzo[c]isoxazole-7-carboxylic acid] | < 100 nM
17 | O=C(Nc1nnc(-c2ccccc2Cl)s1)c1cc(CCO)no1 [Compound 179, N-(5-(2-chlorophenyl)-1,3,4-thiadiazol-2-yl)-3-(2-hydroxyethyl)isoxazole-5-carboxamide] | 100 to 500 nM
18 | CSc1nnc(NC(=O)c2noc3c2CCc2cccnc2-3)s1 [Compound 180, N-(5-(methylthio)-1,3,4-thiadiazol-2-yl)-4,5-dihydroisoxazolo[4,5-h]quinoline-3-carboxamide] | 500 to 1000 nM
19 | CSc1nnc(NC(=O)c2onc3c2CCc2sc(C)nc2-3)s1 [Compound 181, 7-methyl-N-(5-(methylthio)-1,3,4-thiadiazol-2-yl)-4,5-dihydrothiazolo[5′,4′:5,6]benzo[1,2-c]isoxazole-3-carboxamide] | 500 to 1000 nM
20 | CSc1nnc(NC(=O)c2cc(-c3ccccc3-c3ccccc3)cc(=O)o2)s1 [Compound 182, 4-([1,1′-biphenyl]-2-yl)-N-(5-(methylthio)-1,3,4-thiadiazol-2-yl)-2-oxo-2H-pyran-6-carboxamide] | 500 to 1000 nM
21 | CSc1nnc(NC(=O)c2onc3ccc(Cn4cc(C(=O)O)c(=O)c5ccccc54)cc23)s1 [Compound 184, 1-((3-((5-(Methylthio)-1,3,4-thiadiazol-2-yl)carbamoyl)benzo[c]isoxazol-5-yl)methyl)-4-oxo-1,4-dihydroquinoline-3-carboxylic acid] | ≥ 1000 nM
22 | CSc1nnc(NC(=O)c2onc3ccc(Cc4ccc5c(c4)OCO5)cc23)s1 [Compound 185, 5-(Benzo[d][1,3]dioxol-5-ylmethyl)-N-(5-(methylthio)-1,3,4-thiadiazol-2-yl)benzo[c]isoxazole-3-carboxamide] | ≥ 1000 nM
23 | CSc1nnc(NC(=O)c2onc3ccc(Cc4ccc(O)c(O)c4)cc23)s1 [Compound 186, 5-(3,4-Dihydroxybenzyl)-N-(5-(methylthio)-1,3,4-thiadiazol-2-yl)benzo[c]isoxazole-3-carboxamide] | 500 to 1000 nM
24 | COc1ccc(Cc2ccc3noc(C(=O)Nc4nnc(SC)s4)c3c2)cc1O [Compound 187, 5-(3-hydroxy-4-methoxybenzyl)-N-(5-(methylthio)-1,3,4-thiadiazol-2-yl)benzo[c]isoxazole-3-carboxamide] | ≥ 1000 nM
25 | CSc1nnc(NC(=O)c2onc3ccc(Cc4ccc(O)cc4)cc23)s1 [Compound 188, 5-(4-hydroxybenzyl)-N-(5-(methylthio)-1,3,4-thiadiazol-2-yl)benzo[c]isoxazole-3-carboxamide] | 500 to 1000 nM
26 | CSc1nnc(NC(=O)c2onc3ccc(Cc4c[nH]c(=O)c(O)c4)cc23)s1 [Compound 189, 5-((5-Hydroxy-6-oxo-1,6-dihydropyridin-3-yl)methyl)-N-(5-(methylthio)-1,3,4-thiadiazol-2-yl)benzo[c]isoxazole-3-carboxamide] | ≥ 1000 nM
27 | CSc1nnc(NC(=O)c2nnn3c2ccc2ccccc23)s1 [Compound 190, N-(5-(methylthio)-1,3,4-thiadiazol-2-yl)-[1,2,3]triazolo[1,5-a]quinoline-3-carboxamide] | ≥ 1000 nM
28 | CSc1nnc(NC(=O)c2onc3ccc(CO)cc23)s1 [Compound 191, 5-(hydroxymethyl)-N-(5-(methylthio)-1,3,4-thiadiazol-2-yl)benzo[c]isoxazole-3-carboxamide] | ≥ 1000 nM
29 | CSc1nnc(NC(=O)c2onc3cc(C(=O)N(C)C)ccc23)s1 [Compound 192, N^6,N^6-dimethyl-N^3-(5-(methylthio)-1,3,4-thiadiazol-2-yl)benzo[c]isoxazole-3,6-dicarboxamide] | ≥ 1000 nM
